Counter-ions that a name gives are not always drawn. Like-named read-outs stand apart in the source and are kept apart here.
Assays:
Assay type in all cases: in vivo
[1] = tested on: kochia (Kochia scoparia L; KCHSC); test: Postemergence herbicidal activity of mixtures on kochia; set-up: KCHSC Ob: unit: %; settings: for KCHSC Ob (observed control): alone
Experimental: (§1) Seeds of the desired test plant species were planted in Sun Gro MetroMix 306 planting mixture, which typically has a pH of 6.0 to 6.8 and an organic matter content of about 30 percent, in plastic pots with a surface area of 103.2 square centimeters (cm^2). When required to ensure good germination and healthy plants, a fungicide treatment and/or other chemical or physical treatment was applied. The plants were grown for 7-36 days (d) in a greenhouse with an approximate 14-hour (h) photoperiod which was maintained at about 18° C. during the day and 17° C. during the night. Nutrients and water were added on a regular basis and supplemental lighting was provided with overhead metal halide 1000-Watt lamps as necessary. The plants were employed for testing when they reached the second or third true leaf stage.
(§2) Treatments consisted of a cereal fungicide compound (as listed in Tables 1 through 34) and the cereal herbicide, 4-amino-3-chloro-6-(4-chloro-2-fluoro-3-methoxyphenyl)pyridine-2-carboxylic acid, alone and in combination. Weighed amounts of acid, esters (methyl) or salts (triethylammonium, TEA) of 4-amino-3-chloro-6-(4-chloro-2-fluoro-3-methoxyphenyl)pyridine-2-carboxylic acid (Compound I) were placed in 25 milliliter (mL) glass vials and dissolved in a volume of 97:3 volume-to-volume (v/v) acetone/dimethyl sulfoxide (DMSO) to obtain 4.5 milligrams active ingredient per milliliter (mg ai/mL) concentrated solutions. […] The concentrated solutions of Compound I were diluted to 1.5 mg ai/mL with the addition of 2 volumes of an aqueous mixture containing acetone, water, isopropyl alcohol, DMSO, Agri-dex crop oil concentrate, and Triton® X-77 surfactant in a 64.7:26.0:6.7:2.0:0.7:0.01 v/v ratio. A dilution solution was prepared by mixing 1 volume of 97:3 v/v acetone/DMSO and 2 volumes of an aqueous mixture containing acetone, water, isopropyl alcohol, DMSO, Agri-dex crop oil concentrate, and Triton® X-77 surfactant in a 64.7:26.0:6.7:2.0:0.7:0.01 v/v ratio. Compound requirements are based upon a 12 mL application volume at a rate of 187 liters per hectare (L/ha). The concentrated solutions of the cereal fungicides were prepared following the same procedure. Weighed amounts of fungicide were placed in 25 mL glass vials and dissolved in a volume of 97:3 v/v acetone/DMSO to obtain concentrated fungicide solutions. The concentrated solutions of the safener were prepared following the same procedure. Weighed amounts of safener were placed in 25 mL glass vials and dissolved in a volume of 97:3 v/v acetone/DMSO to obtain concentrated safener solutions.
(§3) Spray solutions of the cereal herbicide and the fungicidal compound mixtures were prepared by adding the concentrated solutions to the appropriate amount of dilution solution to form 12 mL spray solution with active ingredients in combinations. Spray solutions of the cereal herbicide, herbicide safener and the fungicidal compound mixtures were prepared by adding the concentrated solutions to the appropriate amount of dilution solution to form 12 mL spray solution with active ingredients in combinations.
(§4) Formulated compounds were applied to the plant material with an overhead Mandel track sprayer equipped with 8002E nozzles calibrated to deliver 187 L/ha over an application area of 0.503 square meters (m^2) at a spray height of 18 inches […] above average plant canopy. Control plants were sprayed in the same manner with the solvent blank.
(§5) The treated plants and control plants were placed in a greenhouse as described above and watered by sub-irrigation to prevent wash-off of the test compounds. After 20-22 d, the condition of the test plants as compared with that of the control plants was determined visually and scored on a scale of 0 to 100 percent where 0 corresponds to no injury and 100 corresponds to complete kill. […]

[2] = tested on: scented mayweed (Matricaria chamomila L; MATCH); test: Postemergence herbicidal activity of mixtures on scented mayweed; settings: for MATCH Ob (observed control): alone
Experimental: as §1, §2, §3, §4, §5

[3] = tested on: Russian thistle (Salsola iberica L; SASKR); test: Postemergence herbicidal activity of mixtures on Russian thistle; settings: for SASKR Ob (observed control): alone
Experimental: as §1, §2, §3, §4, §5

[4] = tested on: bird's-eye speedwell (Veronica persica L; VERPE); test: Postemergence herbicidal activity of mixtures on bird's-eye speedwell; settings: for VERPE Ob (observed control): alone
Experimental: as §1, §2, §3, §4, §5

[5] = tested on: wild pansy (Viola tricolor L; VIOTR); test: Postemergence herbicidal activity of mixtures on wild pansy
Experimental: as §1, §2, §3, §4, §5

Wheat = test: Safening activity of herbicidal compositions on wheat (crop injury); settings: for TRZAS Ob (observed injury): alone
Experimental: as §1, §2, §3, §4, §5

Barley = test: Safening activity of herbicidal compositions on barley (crop injury); settings: for HORVS Ob (observed injury): alone
Experimental: as §1, §2, §3, §4, §5

[6] = Viola tricolor, post-emergence, alone, read-out: VIOTR Ob (observed control)

Fc1ccc([C@]2(Cn3cncn3)O[C@H]2c2ccccc2Cl)cc1 (racemic) [Epoxiconazole, rel-1-[[(2R,3S)-3-(2-chlorophenyl)-2-(4-fluorophenyl)oxiranyl]methyl]-1H-1,2,4-triazole]
pest or weed control at 31.25 g/ha ([1]; Bassia scoparia, post-emergence, fungicide 31.25 g/ha alone, read-out: KCHSC Ob): 0% | pest or weed control at 31.25 g/ha ([2]; Matricaria, post-emergence, fungicide 31.25 g/ha alone, read-out: MATCH Ob): 0% | pest or weed control at 31.25 g/ha ([3]; Salsola tragus, post-emergence, fungicide 31.25 g/ha alone, read-out: SASKR Ob): 0% | pest or weed control at 31.25 g/ha ([4]; Veronica persica, post-emergence, fungicide 31.25 g/ha alone, read-out: VERPE Ob): 0% | pest or weed control at 31.25 g/ha ([5]; Viola tricolor, post-emergence, fungicide 31.25 g/ha alone, read-out: VIOTR Ob): 0%

CCCCCC(C)OC(=O)COc1ccc(Cl)c2cccnc12 (stereo not shown) [cloquintocet-mexyl]
KCHSC Ob (observed control) ([1]; 4.4 g/ha): 0% | KCHSC Ob (observed control) ([1]; 35 g/ha): 0% | MATCH Ob (observed control) ([2]; 4.4 g/ha): 0% | MATCH Ob (observed control) ([2]; 35 g/ha): 0% | SASKR Ob (observed control) ([3]; 4.4 g/ha): 0% | SASKR Ob (observed control) ([3]; 35 g/ha): 0% | VERPE Ob (observed control) ([4]; 4.4 g/ha): 0% | VERPE Ob (observed control) ([4]; 35 g/ha): 0% | pest or weed control at 4.4 g/ha ([5]; Viola tricolor, post-emergence, alone, 4.4 g/ha, read-out: VIOTR Ob (observed control)): 0% | pest or weed control at 35 g/ha [5, 6]: 0%

COc1c(Cl)ccc(-c2cc(N)c(Cl)c(C(=O)O)n2)c1F [Compound I TEA Salt, 4-amino-3-chloro-6-(4-chloro-2-fluoro-3-methoxyphenyl)pyridine-2-carboxylic acid]
KCHSC Ob ([1]; Compound I 8.75 g/ha alone): 40% | KCHSC Ob ([1]; Compound I 17.5 g/ha alone): 55% | KCHSC Ob ([1]; Compound I 35 g/ha alone): 65% | KCHSC Ob (observed control) ([1]; 8.75 g/ha): 40% | KCHSC Ob (observed control) ([1]; 17.5 g/ha): 55% | KCHSC Ob (observed control) ([1]; 35 g/ha): 65% | MATCH Ob ([2]; Compound I 8.75 g/ha alone): 40% | pest or weed control at 17.5 g/ha ([2]; Matricaria, post-emergence, Compound I 17.5 g/ha alone, read-out: MATCH Ob): 67% | pest or weed control at 35 g/ha ([2]; Matricaria, post-emergence, Compound I 35 g/ha alone, read-out: MATCH Ob): 73% | MATCH Ob (observed control) ([2]; 8.75 g/ha): 40% | MATCH Ob (observed control) ([2]; 17.5 g/ha): 67% | MATCH Ob (observed control) ([2]; 35 g/ha): 73% | pest or weed control at 8.75 g/ha ([3]; Salsola tragus, post-emergence, Compound I 8.75 g/ha alone, read-out: SASKR Ob): 80% | pest or weed control at 17.5 g/ha ([3]; Salsola tragus, post-emergence, Compound I 17.5 g/ha alone, read-out: SASKR Ob): 84% | pest or weed control at 35 g/ha ([3]; Salsola tragus, post-emergence, Compound I 35 g/ha alone, read-out: SASKR Ob): 86% | SASKR Ob (observed control) ([3]; 8.75 g/ha): 80% | SASKR Ob (observed control) ([3]; 17.5 g/ha): 84% | SASKR Ob (observed control) ([3]; 35 g/ha): 86% | VERPE Ob ([4]; Compound I 8.75 g/ha alone): 10% | VERPE Ob ([4]; Compound I 17.5 g/ha alone): 40% | VERPE Ob ([4]; Compound I 35 g/ha alone): 70% | VERPE Ob (observed control) ([4]; 8.75 g/ha): 10% | VERPE Ob (observed control) ([4]; 17.5 g/ha): 40% | VERPE Ob (observed control) ([4]; 35 g/ha): 70% | VIOTR Ob ([5]; Compound I 8.75 g/ha alone): 23% | VIOTR Ob ([5]; Compound I 17.5 g/ha alone): 40% | VIOTR Ob ([5]; Compound I 35 g/ha alone): 47% | pest or weed control at 17.5 g/ha ([5]; Viola tricolor, post-emergence, alone, 17.5 g/ha, read-out: VIOTR Ob (observed control)): 40% | pest or weed control at 35 g/ha [5, 6]: 47% | VIOTR Ob (observed control) ([5]; alone, 8.75 g/ha): 23%

CC(C)(C)C(O)(CCc1ccc(Cl)cc1)Cn1cncn1 (stereo not drawn) [Tebuconazole, α-[2-(4-chlorophenyl)ethyl]-α-(1,1-dimethylethyl)-1H-1,2,4-triazole-1-ethanol]
KCHSC Ob (observed control) ([1]; 31.25 g/ha): 0% | KCHSC Ob (observed control) ([1]; 62.5 g/ha): 0% | KCHSC Ob (observed control) ([1]; 250 g/ha): 0% | KCHSC Ob ([1]; fungicide 250 g/ha): 0 | MATCH Ob (observed control) ([2]; 31.25 g/ha): 0% | MATCH Ob (observed control) ([2]; 62.5 g/ha): 0% | MATCH Ob (observed control) ([2]; 250 g/ha): 0% | MATCH Ob ([2]; fungicide 250 g/ha): 0 | SASKR Ob (observed control) ([3]; 31.25 g/ha): 0% | SASKR Ob (observed control) ([3]; 62.5 g/ha): 0% | SASKR Ob (observed control) ([3]; 250 g/ha): 0% | SASKR Ob ([3]; fungicide 250 g/ha): 0 | VERPE Ob (observed control) ([4]; 31.25 g/ha): 0% | VERPE Ob (observed control) ([4]; 62.5 g/ha): 0% | VERPE Ob (observed control) ([4]; 250 g/ha): 0% | VERPE Ob ([4]; fungicide 250 g/ha): 0 | pest or weed control at 31.25 g/ha ([5]; Viola tricolor, post-emergence, alone, 31.25 g/ha, read-out: VIOTR Ob (observed control)): 0% | pest or weed control at 62.5 g/ha [5, 6]: 0% | pest or weed control at 250 g/ha ([5]; Viola tricolor, post-emergence, alone, 250 g/ha, read-out: VIOTR Ob (observed control)): 0% | VIOTR Ob ([5]; fungicide 250 g/ha): 0 | TRZAS Ob (observed injury) (Wheat; 62.5 g/ha): 0% | TRZAS Ob (observed injury) (Wheat; 250 g/ha): 0% | TRZAS Ob (Wheat; fungicide 250 g/ha): 0 | HORVS Ob (observed injury) (Barley; 62.5 g/ha): 0% | HORVS Ob (observed injury) (Barley; 250 g/ha): 0% | HORVS Ob (Barley; fungicide 250 g/ha): 0

CO/N=C(/C(=O)OC)c1ccccc1CO/N=C(\C)c1cccc(C(F)(F)F)c1 [Trifloxystrobin, methyl (αE)-α-(methoxyimino)-2-[[[[(1E)-1-[3-(trifluoromethyl)phenyl]ethylidene]amino]oxy]methyl]benzeneacetate]
KCHSC Ob (observed control) ([1]; 62.5 g/ha): 0% | MATCH Ob (observed control) ([2]; 62.5 g/ha): 0% | SASKR Ob (observed control) ([3]; 62.5 g/ha): 0% | VERPE Ob (observed control) ([4]; 62.5 g/ha): 0% | pest or weed control at 62.5 g/ha [5, 6]: 0%
